Target: T1, Os4BGlu18 (Oryza sativa, UniProt Q7XSK0)
T1 construct: gene BGLU18; mature protein without predicted signal peptide (1-26); N-terminal thioredoxin-His6 tag cut with enterokinase, a few tag residues remain; residues 27-500 seen, last five (LHENQ) disordered
Assay: X-ray crystallography of soaked crystal, […] Å
Conditions: crystals soaked in 1 mM for 20 min, MES pH 6.0; glycone-binding active site (subsite -1)

T1 sequence (Q7XSK0 27-505): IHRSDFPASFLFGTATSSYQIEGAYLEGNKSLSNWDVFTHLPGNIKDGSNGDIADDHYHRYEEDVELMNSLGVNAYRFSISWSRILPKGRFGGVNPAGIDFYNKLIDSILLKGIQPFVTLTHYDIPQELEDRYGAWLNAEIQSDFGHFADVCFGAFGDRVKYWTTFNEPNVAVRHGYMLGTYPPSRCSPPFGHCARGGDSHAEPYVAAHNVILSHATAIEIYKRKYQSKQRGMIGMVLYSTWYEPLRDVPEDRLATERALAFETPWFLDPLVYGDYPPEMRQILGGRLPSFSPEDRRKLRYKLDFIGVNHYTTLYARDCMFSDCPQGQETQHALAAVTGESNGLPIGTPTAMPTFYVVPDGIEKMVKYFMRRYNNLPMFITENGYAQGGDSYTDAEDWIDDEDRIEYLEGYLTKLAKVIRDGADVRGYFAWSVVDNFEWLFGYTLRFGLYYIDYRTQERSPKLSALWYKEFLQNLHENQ

SMILES: O=C1O[C@H](CO)[C@@H](O)[C@H](O)[C@H]1O [DG, δ-gluconolactone]
- X-ray crystallography of soaked crystal, 2.1 Å: could be observed in the active site pocket

From article PMC7817009, “Structural analysis of rice Os4BGlu18 monolignol β-glucosidase” (PLoS ONE, 2021)
